Results on 3 molecules are retold here after ChEMBL document CHEMBL5696442, “Discovery of type II inhibitors of TGFβ-activated kinase 1 (TAK1) and mitogen-activated protein kinase kinase kinase kinase 2 (MAP4K2)” (J Med Chem, 2015).

Test [1] deals with Tyrosine-protein kinase Yes (Homo sapiens) (UniProt P07947). Description: Inhibition of YES (unknown origin) at 1 uM by Ambit Kinomescan binding assay relative to control; values are per cent of control.
A short description of test [2]: Inhibition of KHS1 (unknown origin) Lys1 labeling site by KiNativ Profiling analysis. More on the design: species or system Homo sapiens.
Test [3] concerns the target Serine/threonine-protein kinase DCLK1 (Homo sapiens) (UniProt O15075). Description: Inhibition of DCAMKL1 (unknown origin) at 1 uM by Ambit Kinomescan binding assay relative to control.
Test [4] addresses Uncharacterized serine/threonine-protein kinase SBK3 (Homo sapiens) (UniProt P0C264). Description: Inhibition of SgK110 (unknown origin) at 10 uM by Ambit Kinomescan binding assay.
Test [5] has as its target Cyclin-dependent kinase 16 (Homo sapiens) (UniProt Q00536). Description: Inhibition of PFTAIRE1 Lys2 labeling site in human A-375 cells at 0.5 uM by KiNativ Profiling analysis relative to control. Type of test: cell-based.
Test [6] deals with Casein kinase I isoform gamma-2 (Homo sapiens) (UniProt P78368). Description: Inhibition of CSNK1G2 (unknown origin) at 10 uM by Ambit Kinomescan binding assay.
Test [7] concerns the target T1, Serine/threonine-protein kinase TBK1 (Homo sapiens) (UniProt Q9UHD2).
T1 sequence (whole entry): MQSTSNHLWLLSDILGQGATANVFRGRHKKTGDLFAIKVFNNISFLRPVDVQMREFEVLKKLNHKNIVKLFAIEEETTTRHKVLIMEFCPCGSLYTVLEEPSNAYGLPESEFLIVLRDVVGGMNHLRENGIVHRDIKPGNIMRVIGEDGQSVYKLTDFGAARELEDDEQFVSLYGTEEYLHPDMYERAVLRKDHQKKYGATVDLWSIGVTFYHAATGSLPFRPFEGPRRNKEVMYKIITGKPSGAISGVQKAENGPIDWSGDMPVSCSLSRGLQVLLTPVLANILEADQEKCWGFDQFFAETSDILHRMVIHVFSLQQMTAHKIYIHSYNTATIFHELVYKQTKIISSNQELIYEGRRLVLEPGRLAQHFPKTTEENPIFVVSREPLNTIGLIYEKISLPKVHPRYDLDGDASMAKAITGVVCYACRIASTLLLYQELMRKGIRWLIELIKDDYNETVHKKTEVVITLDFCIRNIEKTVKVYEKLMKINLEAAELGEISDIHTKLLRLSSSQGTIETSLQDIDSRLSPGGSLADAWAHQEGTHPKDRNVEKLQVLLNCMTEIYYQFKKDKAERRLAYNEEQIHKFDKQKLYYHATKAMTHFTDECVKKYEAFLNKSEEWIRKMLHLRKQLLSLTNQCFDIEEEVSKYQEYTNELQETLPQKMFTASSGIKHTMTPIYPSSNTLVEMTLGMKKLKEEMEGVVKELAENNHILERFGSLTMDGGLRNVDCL
Description: Inhibition of TBK1 Lys2 labeling site in human Huh-7 cells at 1 uM by KiNativ Profiling analysis relative to control. It counts as cell-based.

For test [8], the target named is T2, Eukaryotic translation initiation factor 2-alpha kinase 3 (Homo sapiens) (UniProt Q9NZJ5).
T2 sequence (whole entry): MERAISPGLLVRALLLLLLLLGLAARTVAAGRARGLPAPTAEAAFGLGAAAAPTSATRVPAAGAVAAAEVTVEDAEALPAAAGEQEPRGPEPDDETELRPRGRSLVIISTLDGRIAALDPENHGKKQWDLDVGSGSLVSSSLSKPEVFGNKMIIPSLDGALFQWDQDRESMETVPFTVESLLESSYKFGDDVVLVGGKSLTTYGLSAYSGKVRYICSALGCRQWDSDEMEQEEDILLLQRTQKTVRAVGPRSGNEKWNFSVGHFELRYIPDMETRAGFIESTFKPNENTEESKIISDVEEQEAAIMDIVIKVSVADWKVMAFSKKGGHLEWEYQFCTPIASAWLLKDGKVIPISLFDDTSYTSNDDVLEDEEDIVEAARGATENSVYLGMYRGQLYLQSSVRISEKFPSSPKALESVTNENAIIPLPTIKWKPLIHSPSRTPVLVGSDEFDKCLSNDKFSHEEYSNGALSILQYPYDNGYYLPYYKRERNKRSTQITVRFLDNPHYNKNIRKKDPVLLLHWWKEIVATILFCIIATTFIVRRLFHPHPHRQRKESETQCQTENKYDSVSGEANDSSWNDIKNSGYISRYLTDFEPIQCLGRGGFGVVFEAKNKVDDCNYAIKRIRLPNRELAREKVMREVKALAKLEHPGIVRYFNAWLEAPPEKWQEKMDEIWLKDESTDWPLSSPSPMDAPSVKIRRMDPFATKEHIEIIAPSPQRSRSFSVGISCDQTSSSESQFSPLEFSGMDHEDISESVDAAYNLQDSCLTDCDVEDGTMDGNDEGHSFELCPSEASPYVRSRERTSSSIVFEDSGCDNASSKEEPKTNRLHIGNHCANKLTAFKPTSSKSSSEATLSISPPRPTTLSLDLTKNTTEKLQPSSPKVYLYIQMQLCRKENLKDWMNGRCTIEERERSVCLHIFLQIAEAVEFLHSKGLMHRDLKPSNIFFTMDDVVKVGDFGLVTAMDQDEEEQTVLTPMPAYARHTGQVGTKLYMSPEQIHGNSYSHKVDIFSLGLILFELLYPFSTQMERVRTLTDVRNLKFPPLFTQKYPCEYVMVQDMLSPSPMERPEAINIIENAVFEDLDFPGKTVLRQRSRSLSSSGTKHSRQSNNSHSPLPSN
Description: Inhibition of PEK Lys2 labeling site in human Huh-7 cells at 1 uM by KiNativ Profiling analysis relative to control. It counts as cell-based.

The target of test [9] is Rho-associated protein kinase 1 (Homo sapiens) (UniProt Q13464). Description: Inhibition of ROCK1 Lys2 labeling site in human Huh-7 cells at 1 uM by KiNativ Profiling analysis relative to control. Type of test: cell-based.
A short description of test [10]: Inhibition of p70S6K Lys2 labeling site in human Huh-7 cells at 1 uM by KiNativ Profiling analysis relative to control. The note with it: condition cancer.
The target of test [11] is Phosphatidylinositol 4-kinase beta (Homo sapiens) (UniProt Q9UBF8). Description: Inhibition of PI4KB ATP labeling site harbouring VPHTQAVVLNSKDKAPYLIYVEVLECENFDTTSVPAR in human Huh-7 cell lysate at 1 uM by KiNativ Profiling analysis relative to control. Type of test: subcellular.

The source made the active and inactive calls. The rule behind the calls is not given here.

Chain of Phosphatidylinositol 4-kinase beta (Homo sapiens) (Q9UBF8 2-816 limits assumed): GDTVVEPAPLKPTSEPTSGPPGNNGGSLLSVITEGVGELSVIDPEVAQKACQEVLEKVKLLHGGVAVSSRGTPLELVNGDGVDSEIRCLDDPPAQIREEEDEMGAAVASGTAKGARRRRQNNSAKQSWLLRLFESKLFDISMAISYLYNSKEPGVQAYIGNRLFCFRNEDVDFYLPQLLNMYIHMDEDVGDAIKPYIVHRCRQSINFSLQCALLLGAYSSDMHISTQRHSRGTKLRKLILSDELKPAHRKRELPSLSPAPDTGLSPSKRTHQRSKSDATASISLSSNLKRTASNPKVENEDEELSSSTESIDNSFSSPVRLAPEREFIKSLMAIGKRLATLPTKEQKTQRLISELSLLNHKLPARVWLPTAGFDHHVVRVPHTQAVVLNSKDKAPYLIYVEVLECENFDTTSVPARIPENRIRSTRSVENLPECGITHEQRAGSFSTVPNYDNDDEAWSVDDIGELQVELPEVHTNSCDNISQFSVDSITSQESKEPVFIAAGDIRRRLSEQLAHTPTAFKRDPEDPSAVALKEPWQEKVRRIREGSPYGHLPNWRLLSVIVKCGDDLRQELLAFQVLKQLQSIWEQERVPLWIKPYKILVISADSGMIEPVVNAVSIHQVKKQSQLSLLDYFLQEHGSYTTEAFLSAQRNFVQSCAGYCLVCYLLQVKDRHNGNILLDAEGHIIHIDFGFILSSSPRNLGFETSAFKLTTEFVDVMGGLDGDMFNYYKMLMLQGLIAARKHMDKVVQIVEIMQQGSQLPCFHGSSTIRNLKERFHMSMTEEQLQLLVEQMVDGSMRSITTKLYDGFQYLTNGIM
Chain of Tyrosine-protein kinase Yes (Homo sapiens) (P07947 2-543 limits assumed): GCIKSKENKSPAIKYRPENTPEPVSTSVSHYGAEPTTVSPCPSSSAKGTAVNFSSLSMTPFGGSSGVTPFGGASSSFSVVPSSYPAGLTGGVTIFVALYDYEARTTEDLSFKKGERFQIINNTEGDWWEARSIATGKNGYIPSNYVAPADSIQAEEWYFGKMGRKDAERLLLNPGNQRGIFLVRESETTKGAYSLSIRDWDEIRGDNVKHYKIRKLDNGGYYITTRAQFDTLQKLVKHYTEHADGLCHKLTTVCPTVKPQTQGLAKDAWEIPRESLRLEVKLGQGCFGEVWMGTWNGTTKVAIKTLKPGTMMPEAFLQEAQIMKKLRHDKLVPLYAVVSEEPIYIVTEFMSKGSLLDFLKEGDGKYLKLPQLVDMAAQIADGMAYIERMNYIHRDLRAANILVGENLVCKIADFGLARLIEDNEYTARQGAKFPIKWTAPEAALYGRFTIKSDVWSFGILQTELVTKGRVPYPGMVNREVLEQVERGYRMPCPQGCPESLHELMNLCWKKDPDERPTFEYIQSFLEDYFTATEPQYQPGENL
Chain of Cyclin-dependent kinase 16 (Homo sapiens) (Q00536 whole entry, canonical isoform): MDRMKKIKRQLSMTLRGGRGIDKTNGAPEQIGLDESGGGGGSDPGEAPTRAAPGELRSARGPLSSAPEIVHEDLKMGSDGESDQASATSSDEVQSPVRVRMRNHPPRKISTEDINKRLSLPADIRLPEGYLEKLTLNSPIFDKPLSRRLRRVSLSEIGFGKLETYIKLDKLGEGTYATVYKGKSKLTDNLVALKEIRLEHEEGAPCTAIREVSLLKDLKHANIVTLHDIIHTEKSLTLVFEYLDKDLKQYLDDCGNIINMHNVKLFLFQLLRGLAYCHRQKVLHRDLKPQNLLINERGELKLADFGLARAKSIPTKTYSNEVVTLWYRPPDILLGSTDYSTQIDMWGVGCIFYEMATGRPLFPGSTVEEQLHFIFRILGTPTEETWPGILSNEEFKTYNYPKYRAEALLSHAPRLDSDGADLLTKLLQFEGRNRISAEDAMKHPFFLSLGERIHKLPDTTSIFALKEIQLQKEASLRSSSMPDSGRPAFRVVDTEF
Chain of Uncharacterized serine/threonine-protein kinase SBK3 (Homo sapiens) (P0C264 whole entry): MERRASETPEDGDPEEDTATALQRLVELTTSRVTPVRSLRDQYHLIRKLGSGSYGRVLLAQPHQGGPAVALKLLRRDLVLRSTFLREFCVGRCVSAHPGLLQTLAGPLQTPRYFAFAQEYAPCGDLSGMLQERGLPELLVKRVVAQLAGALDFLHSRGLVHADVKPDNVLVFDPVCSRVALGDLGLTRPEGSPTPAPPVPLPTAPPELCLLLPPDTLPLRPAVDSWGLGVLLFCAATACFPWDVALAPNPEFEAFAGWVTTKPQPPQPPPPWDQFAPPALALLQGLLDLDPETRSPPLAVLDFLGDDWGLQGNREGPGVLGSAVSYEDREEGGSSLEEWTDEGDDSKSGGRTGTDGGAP
Chain of Rho-associated protein kinase 1 (Homo sapiens) (Q13464 2-1354 limits assumed): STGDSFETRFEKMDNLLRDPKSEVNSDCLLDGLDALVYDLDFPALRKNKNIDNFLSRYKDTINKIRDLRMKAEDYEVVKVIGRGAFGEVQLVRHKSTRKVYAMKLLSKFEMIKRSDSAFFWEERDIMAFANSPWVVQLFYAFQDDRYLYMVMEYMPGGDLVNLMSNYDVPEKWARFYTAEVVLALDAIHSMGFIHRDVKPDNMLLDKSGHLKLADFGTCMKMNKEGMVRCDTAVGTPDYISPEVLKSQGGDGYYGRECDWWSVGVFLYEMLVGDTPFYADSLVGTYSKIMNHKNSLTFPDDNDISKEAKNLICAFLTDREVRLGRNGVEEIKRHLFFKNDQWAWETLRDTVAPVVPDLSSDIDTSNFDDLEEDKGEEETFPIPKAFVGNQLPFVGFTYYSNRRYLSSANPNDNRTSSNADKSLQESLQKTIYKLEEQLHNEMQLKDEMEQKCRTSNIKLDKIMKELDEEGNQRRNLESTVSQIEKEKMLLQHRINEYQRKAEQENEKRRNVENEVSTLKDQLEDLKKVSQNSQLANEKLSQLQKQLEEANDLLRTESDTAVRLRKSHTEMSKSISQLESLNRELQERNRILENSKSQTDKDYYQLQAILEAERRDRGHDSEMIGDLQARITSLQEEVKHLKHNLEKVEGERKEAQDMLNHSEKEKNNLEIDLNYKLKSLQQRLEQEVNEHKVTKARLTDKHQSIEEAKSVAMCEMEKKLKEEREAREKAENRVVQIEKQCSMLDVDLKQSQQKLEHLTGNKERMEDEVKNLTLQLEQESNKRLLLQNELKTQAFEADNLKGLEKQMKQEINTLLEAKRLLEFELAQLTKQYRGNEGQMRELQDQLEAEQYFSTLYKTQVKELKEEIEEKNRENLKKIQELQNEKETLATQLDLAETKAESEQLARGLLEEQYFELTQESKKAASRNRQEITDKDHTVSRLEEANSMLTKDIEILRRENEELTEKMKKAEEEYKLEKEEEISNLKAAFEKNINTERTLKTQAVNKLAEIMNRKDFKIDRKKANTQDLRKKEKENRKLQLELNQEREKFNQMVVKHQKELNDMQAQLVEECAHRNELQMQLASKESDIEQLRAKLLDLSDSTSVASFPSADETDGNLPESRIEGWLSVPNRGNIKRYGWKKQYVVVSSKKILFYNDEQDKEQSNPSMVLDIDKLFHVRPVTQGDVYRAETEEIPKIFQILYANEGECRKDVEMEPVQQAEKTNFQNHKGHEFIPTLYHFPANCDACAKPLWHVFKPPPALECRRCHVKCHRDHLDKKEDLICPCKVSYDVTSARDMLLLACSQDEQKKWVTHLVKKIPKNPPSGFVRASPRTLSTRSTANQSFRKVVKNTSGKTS
Chain of Serine/threonine-protein kinase DCLK1 (Homo sapiens) (O15075 whole entry): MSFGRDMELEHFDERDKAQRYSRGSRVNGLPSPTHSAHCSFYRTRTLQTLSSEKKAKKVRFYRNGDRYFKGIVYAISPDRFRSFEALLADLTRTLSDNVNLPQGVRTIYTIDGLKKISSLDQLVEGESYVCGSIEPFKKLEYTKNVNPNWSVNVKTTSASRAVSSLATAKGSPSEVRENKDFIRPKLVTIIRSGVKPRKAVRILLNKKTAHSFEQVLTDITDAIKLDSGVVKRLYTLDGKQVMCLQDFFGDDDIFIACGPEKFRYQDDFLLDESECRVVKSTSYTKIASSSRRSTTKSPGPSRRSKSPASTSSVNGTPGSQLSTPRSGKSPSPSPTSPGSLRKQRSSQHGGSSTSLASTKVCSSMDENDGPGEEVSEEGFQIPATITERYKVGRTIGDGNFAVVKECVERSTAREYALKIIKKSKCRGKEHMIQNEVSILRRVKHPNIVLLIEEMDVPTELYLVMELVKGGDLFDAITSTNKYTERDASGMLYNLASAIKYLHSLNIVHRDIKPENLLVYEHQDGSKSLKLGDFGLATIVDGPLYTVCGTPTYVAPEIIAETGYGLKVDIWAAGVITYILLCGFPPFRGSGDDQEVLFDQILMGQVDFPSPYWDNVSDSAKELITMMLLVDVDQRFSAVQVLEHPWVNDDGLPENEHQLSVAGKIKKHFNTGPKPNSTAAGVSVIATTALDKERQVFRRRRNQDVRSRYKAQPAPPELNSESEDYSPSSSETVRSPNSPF
Chain of Casein kinase I isoform gamma-2 (Homo sapiens) (P78368 whole entry, looked up, canonical isoform): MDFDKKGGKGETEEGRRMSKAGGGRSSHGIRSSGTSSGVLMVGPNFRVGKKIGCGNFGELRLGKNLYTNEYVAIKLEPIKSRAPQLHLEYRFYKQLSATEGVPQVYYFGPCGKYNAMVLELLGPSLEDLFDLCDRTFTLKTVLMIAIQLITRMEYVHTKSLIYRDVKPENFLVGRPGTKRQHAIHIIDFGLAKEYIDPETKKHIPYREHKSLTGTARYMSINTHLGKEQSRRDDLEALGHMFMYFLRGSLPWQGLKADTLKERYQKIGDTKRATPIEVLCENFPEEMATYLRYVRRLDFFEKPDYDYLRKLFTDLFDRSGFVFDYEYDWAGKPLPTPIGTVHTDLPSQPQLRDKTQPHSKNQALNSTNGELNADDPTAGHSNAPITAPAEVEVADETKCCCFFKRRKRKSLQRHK

Regarding `CCN1CCN(Cc2ccc(NC(=O)c3ccc(C)c(/C=C/c4cnc5[nH]ccc5c4OC)c3)cc2C(F)(F)F)CC1`, the percent of control in test [1] worked out at 2.2%. In [2], this molecule yielded an IC50 of 1200 nM. For the same molecule, in test [3], the inhibition was 100%.

Take `CCN1CCN(Cc2ccc(NC(=O)c3ccc(C)c(Oc4ccnc5[nH]ccc45)c3)cc2C(F)(F)F)CC1`: the inhibition entry in test [4] and in test [6] was “inactive” throughout. Further, the inhibition in test [5] was found to be 33.6%.

Take `CNc1cc(Oc2cc(C(=O)Nc3cc(N4CCN(C)CC4)cc(C(F)(F)F)c3)ccc2C)ncn1`: the inhibition in test [7] was 17.7%; in [8] it was 16.8%; in test [9] it was -1%; in test [11] it was -1%. For the same molecule, the inhibition at 1 µM in [10] was -110%.
